Results from ChEMBL document CHEMBL5725356, “Anti-fibrotic pyridinones” (2017).

Test: ET-1 Assay: Fibroblasts (primary human lung and dermal, HFL-1, 3T3 etc) are seeded in 96-well plates at ~15000 cells/well and serum starved for 0-48 hours. After media exchange, compounds serially diluted in DMSO are added to the cells. After a brief incubation of ~30 min, stimulants (TGFb, serum, LPA etc) are added followed by further incubation for 16-48 hours. Media is then harvested and stored frozen in plate format for later endothelin-1 (ET-1) determination by ELISA. Toxicity measurements are made using the ATPlite kit (Perkin-Elmer). ET-1 is quantified using an ELISA kit (R&D Systems). The amount of ET-1 produced in the assay wells are back-calculated using the ELISA standard. The ability of a compound to inhibit ET-1 production is typically analyzed by fitting dose-response curves to a 4-parameter logistic function to obtain an EC50 value.
Conditions: HFL1

SMILES	EC50
O=c1ccc(C(F)(F)F)cn1-c1cccc(F)c1	> 200 µM
Cc1cc(=O)n(-c2ccc(C(F)(F)F)cc2)cc1-c1cnn(C)c1	in the range around 125 µM
Cc1cc(=O)n(-c2ccc(OC(F)(F)F)cc2)cc1-c1ccc2ocnc2c1	< 50 µM
O=c1ccc(-c2cccc(Cl)c2)cn1-c1ccccc1	in the range around 125 µM
CC(C)c1cc(=O)n(-c2ccc(OC(F)(F)F)cc2)cc1-c1cnn(C)c1	in the range around 125 µM
Cc1cc(=O)n(-c2cccc(OC(F)(F)F)c2)cc1-c1cnn(C)c1	> 200 µM
Cn1cc(-c2cn(-c3ccc(OC(F)(F)F)cc3)c(=O)cc2C(F)(F)F)cn1	> 200 µM
Cc1ccc(=O)n(-c2ccccc2F)c1	> 200 µM
Cc1cc(=O)n(-c2ccc(F)cc2)cc1-c1ccc(OC(F)(F)F)cc1	in the range around 125 µM
Cc1cc(=O)n(-c2ccc(OC(F)(F)F)cc2)cc1-c1ccc(F)c(F)c1	in the range around 125 µM
C#Cc1ccc(=O)n(-c2ccccc2)c1	> 200 µM
Cc1cc(=O)n(-c2ccc(OC(F)(F)F)cc2)cc1-c1ccc2c(c1)OCCO2	in the range around 125 µM
CC(C)Oc1ccc(-n2cc(-c3cccc(Cl)c3)ccc2=O)cc1	< 50 µM
Cc1cc(=O)n(-c2cccc3c2OCO3)cc1-c1cnn(C)c1	> 200 µM
O=c1ccc(-c2ccccc2)cn1-c1ccc(F)cc1	in the range around 125 µM
O=c1ccc(-c2ccccc2)cn1-c1ccccc1Cl	in the range around 125 µM
Cc1cc(=O)n(-c2ccc3c(c2)OCCO3)cc1-c1cnn(C)c1	> 200 µM
Cc1cc(=O)n(-c2ccc(OC(F)(F)F)cc2)cc1-c1ccc2ncsc2c1	in the range around 125 µM
COc1ccc(-c2ccc(=O)n(-c3cncnc3)c2)cc1	> 200 µM
O=c1ccc(-c2ccccc2)cn1-c1cncnc1	> 200 µM
COc1cccc(-n2cc(C(F)(F)F)ccc2=O)c1	> 200 µM
Cc1cc(=O)n(-c2ccc(OC(F)(F)F)cc2)cc1-c1ccc2nccn2c1	in the range around 125 µM
CC(C)Oc1ccc(-n2cc(Br)ccc2=O)cc1	> 200 µM
O=c1ccc(C(F)(F)F)cn1-c1ccccc1Cl	> 200 µM
Cc1cc(=O)n(-c2ccc(OC(F)(F)F)cc2)cc1-c1ccc(F)c(Cl)c1	< 50 µM
Cc1cc(=O)n(-c2ccc3scnc3c2)cc1-c1cnn(C)c1	> 200 µM

SMILES	EC50
Cc1cc(=O)n(-c2ccc(OC(F)(F)F)cc2)cc1-c1ccc2c(c1)NC(=O)CO2	< 50 µM
Cc1cc(=O)n(-c2ccc(OC(F)(F)F)cc2)cc1-c1cnsc1	> 200 µM
Cc1cc(=O)n(-c2ccc(OC(F)(F)F)cc2)cc1-c1ccnnc1	in the range around 125 µM
O=c1ccc(-c2ccccc2)cn1-c1ccncc1	> 200 µM
Cc1cc(=O)n(-c2ccc(OC(F)(F)F)cc2)cc1-c1cscn1	in the range around 125 µM
Cc1cc(=O)n(-c2ccccc2F)cc1-c1cnn(C)c1	> 200 µM
Cc1cc(=O)n(-c2cccc3c2OCCO3)cc1-c1cnn(C)c1	in the range around 125 µM
Cc1cc(=O)n(-c2ccc(OC(F)(F)F)cc2)cc1-c1cccnc1	> 200 µM
CC(C)c1cc(=O)n(-c2ccc(OC(F)(F)F)cc2)cc1-c1ccc(F)cc1	in the range around 125 µM
O=c1ccc(C(F)(F)F)cn1-c1ccc(OC(F)(F)F)cc1	> 200 µM
CC(=O)Nc1cccc(-n2cc(C(F)(F)F)ccc2=O)c1	> 200 µM
Cc1cc(=O)n(-c2ccc(OC(F)(F)F)cc2)cc1-c1c(C)nn(C)c1C	in the range around 125 µM
Cc1cc(=O)n(-c2ccc(OC(F)(F)F)cc2)cc1-c1ccc2cn(C)nc2c1	in the range around 125 µM
O=c1ccc(Br)cn1-c1cccc(F)c1	> 200 µM
Cc1cc(=O)n(-c2ccc(OC(F)(F)F)cc2)cc1-c1ccc2nonc2c1	in the range around 125 µM
Cc1cc(=O)n(-c2ccc(OC(F)(F)F)cc2)cc1-c1cccc2ncsc12	< 50 µM
CC(=O)Nc1cccc(-n2cc(Br)ccc2=O)c1	> 200 µM
O=c1ccc(C(F)(F)F)cn1-c1cncnc1	> 200 µM
COc1cc(-n2cc(-c3cn[nH]c3)c(C)cc2=O)cc(OC)c1OC	> 200 µM
CCc1cc(=O)n(-c2ccc(OC(F)(F)F)cc2)cc1-c1ccc(F)cc1	in the range around 125 µM
CCc1cc(=O)n(-c2ccc(OC(F)(F)F)cc2)cc1-c1cnn(C)c1	in the range around 125 µM
Cc1cc(=O)n(-c2ccc(Cl)cc2C)cc1-c1cnn(C)c1	in the range around 125 µM
Cc1cc(=O)n(-c2ccc(OC(F)(F)F)cc2)cc1-c1nnn(C)n1	> 200 µM
Cc1cc(=O)n(-c2ccc3c(c2)OCO3)cc1-c1cnn(C)c1	> 200 µM
COc1cccc(-n2cc(Br)ccc2=O)c1	> 200 µM
Cc1cc(=O)n(-c2ccc(OC(F)(F)F)cc2)cc1-c1cccc2c1OCCO2	< 50 µM

SMILES	EC50
O=c1ccc(-c2ccc(F)cc2)cn1-c1ccccc1F	in the range around 125 µM
Cc1cc(=O)n(-c2ccc3ocnc3c2)cc1-c1cnn(C)c1	> 200 µM
Cc1cc(=O)n(-c2ccc(OC(F)(F)F)cc2)cc1-c1ccc2c(c1)OCO2	in the range around 125 µM
Cc1cc(=O)n(-c2ccc(OC(F)(F)F)cc2)cc1-c1cccc2c1OC(C)(C)O2	in the range around 125 µM
COc1ccc(-c2ccc(=O)n(-c3ccccc3F)c2)cc1	> 200 µM
Cc1cc(=O)n(-c2ccc(OC(F)(F)F)cc2)cc1-n1ccnc1	> 200 µM
Cc1cc(=O)n(-c2ccc(OC(F)(F)F)cc2)cc1-c1ccc(Cl)c(F)c1	in the range around 125 µM
Cc1cc(=O)n(-c2ccc(OC(F)(F)F)cc2)cc1-c1cn[nH]c1	< 50 µM
CC(C)c1ccc(=O)n(-c2ccccc2)c1	> 200 µM
CCOc1ccc(-n2cc(Br)ccc2=O)c(C)c1	> 200 µM
Cc1cc(=O)n(-c2ccc(OC(F)(F)F)cc2)cc1-c1cccc2scnc12	> 200 µM
O=c1ccc(Br)cn1-c1ccc(OC(F)(F)F)cc1	> 200 µM
Cc1cc(=O)n(-c2cccc(C(F)(F)F)c2)cc1-c1cnn(C)c1	> 200 µM
Cc1cc(=O)n(-c2ccc(OC(F)(F)F)cc2)cc1-c1ccnn1C	> 200 µM
COc1ccc(-c2ccc(=O)n(-c3ccc(Cl)cc3)c2)cc1	in the range around 125 µM
Cc1cc(=O)n(-c2ccc(OC(F)(F)F)cc2)cc1-c1ccc(Cl)c(Cl)c1	in the range around 125 µM
COc1ccc(-c2ccc(=O)n(-c3ccccc3Cl)c2)cc1	in the range around 125 µM
Cc1cc(=O)n(-c2ccc(OC(F)(F)F)cc2)cc1-c1nn[nH]n1	> 200 µM
O=c1ccc(Br)cn1-c1cccc(C(F)(F)F)c1	> 200 µM
Cc1cc(=O)n(-c2ccc(OC(F)(F)F)cc2)cc1-c1cccc2c1OCO2	< 50 µM
Cc1cc(=O)n(-c2ccc(OC(F)(F)F)cc2)cc1-c1ccc(F)cc1	> 200 µM
Cc1cc(=O)n(-c2ccccc2C)cc1-c1ccc(F)cc1	in the range around 125 µM
O=c1ccc(-c2cccc(Cl)c2)cn1-c1ccc(Cl)cc1	< 50 µM
Cc1ccc(-n2cc(-c3ccc(F)cc3)c(C)cc2=O)cc1	in the range around 125 µM
O=c1cc(C(F)(F)F)c(-c2ccc(F)cc2)cn1-c1ccc(OC(F)(F)F)cc1	in the range around 125 µM
Cc1cc(=O)n(-c2ccc(OC(C)C)cc2C)cc1-c1cnn(C)c1	> 200 µM

SMILES	EC50
CC(C)Oc1ccc(-n2cc(-c3ccc(F)cc3)ccc2=O)cc1	in the range around 125 µM
Cc1cc(=O)n(-c2ccc(OC(F)(F)F)cc2)cc1-c1ccc2c(ccn2C)c1	> 200 µM
Cc1cc(=O)n(-c2ccc(OC(F)(F)F)cc2)cc1-c1ccc2scnc2c1	< 50 µM
Cc1cc(=O)n(-c2ccc(OC(F)(F)F)cc2)cc1-c1ccc2c(c1)N(C)C(=O)CO2	< 50 µM
Cc1cc(=O)n(-c2ccc(OC(F)(F)F)cc2)cc1-c1nnnn1C	> 200 µM
Cc1cc(=O)n(-c2ccc(OC(F)(F)F)cc2)cc1-c1ccc2c(c1)OC(F)(F)O2	in the range around 125 µM
Cc1cc(=O)n(-c2ccc(OC(F)(F)F)cc2)cc1-c1ccc2c(c1)OC(C)(C)O2	> 200 µM
CC(=O)Nc1cccc(-n2cc(-c3cn[nH]c3)c(C)cc2=O)c1	> 200 µM
Cc1cc(=O)n(-c2ccc(OC(F)(F)F)cc2)cc1-c1cnc2nccn2c1	> 200 µM
Cc1cc(=O)n(-c2ccc(OC(F)(F)F)cc2)cc1-c1cn(C)nc1C(F)(F)F	in the range around 125 µM
COc1ccc(-n2cc(-c3cccc(Cl)c3)ccc2=O)cc1	< 50 µM
CCOc1ccc(-n2cc(-c3ccccc3)ccc2=O)c(C)c1	in the range around 125 µM
Cc1cc(=O)n(-c2ccc(OC(F)(F)F)cc2)cc1-c1ccc(-c2cncs2)cc1	in the range around 125 µM
O=c1ccc(-c2ccc(F)cc2)cn1-c1ccccc1Cl	> 200 µM
Cc1cc(=O)n(-c2ccc3[nH]cnc3c2)cc1-c1cnn(C)c1	> 200 µM
CCOc1ccc(-n2cc(-c3cn[nH]c3)c(C)cc2=O)c(C)c1	in the range around 125 µM
O=c1ccc(-c2ccc(F)cc2)cn1-c1cccc(C(F)(F)F)c1	in the range around 125 µM
COc1ccc(-c2ccc(=O)n(-c3cccc(OC)c3)c2)cc1	in the range around 125 µM
O=c1ccc(-c2ccccc2)cn1-c1cccc(F)c1	> 200 µM
CCOc1ccc(-n2cc(C(F)(F)F)ccc2=O)c(C)c1	in the range around 125 µM
O=c1ccc(Br)cn1-c1ccc(F)cc1	> 200 µM
Cc1ccc(=O)n(-c2cc(F)c(F)c(F)c2)c1	> 200 µM
Cc1cc(=O)n(-c2ccc(OC(F)(F)F)cc2)cc1-c1ccncc1	> 200 µM
O=c1ccc(Br)cn1-c1ccc(Cl)cc1	> 200 µM
COc1cc(-n2cc(-c3cnn(C)c3)c(C)cc2=O)cc(OC)c1OC	> 200 µM
Cc1cc(=O)n(-c2ccc(OC(F)(F)F)cc2)cc1-c1ccc2ccn(C)c2c1	< 50 µM
